Paper PMC5902437, “Structural studies on radiopharmaceutical DOTA-minigastrin analogue (CP04) complexes and their interaction with CCK2 receptor” (EJNMMI Research, 2018)

Columns and labels:
[1] = target: T1, human CCK-2R (Homo sapiens, UniProt P32239); assay: Competition binding assay with [^90Y]Y-CP04 as competitive radioligand in A431-CCK2R(+) cells; settings: 0.5 mln per well, radioligand [^90Y]Y-CP04 0.24 pmol per well, 1 h at 37 °C, competitor 10^-6–10^-13 M, cell-associated radioactivity by gamma counter, mean ± SD, n = 3 experiments in triplicate, read-out: apparent 50% inhibitory concentration (IC50) for hCCK-2R
T1 construct: expressed in transfected cells; host or cells: A431 human epidermoid carcinoma cells, stably transfected (gift of Prof. Luigi Aloj)
T1 sequence (P32239 1-447): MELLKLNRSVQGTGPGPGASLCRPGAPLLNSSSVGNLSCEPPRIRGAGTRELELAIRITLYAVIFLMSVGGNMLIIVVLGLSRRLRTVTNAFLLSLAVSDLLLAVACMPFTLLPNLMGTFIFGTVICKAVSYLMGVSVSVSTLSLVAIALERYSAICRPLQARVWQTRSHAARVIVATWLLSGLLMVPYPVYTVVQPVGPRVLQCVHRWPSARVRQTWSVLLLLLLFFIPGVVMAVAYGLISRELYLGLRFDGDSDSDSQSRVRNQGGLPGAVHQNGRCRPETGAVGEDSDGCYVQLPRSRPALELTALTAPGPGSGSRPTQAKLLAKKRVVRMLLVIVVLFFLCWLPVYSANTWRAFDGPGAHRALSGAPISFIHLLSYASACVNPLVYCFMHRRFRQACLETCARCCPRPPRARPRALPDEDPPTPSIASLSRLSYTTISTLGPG
Experimental: The A431 human epidermoid carcinoma cell line stably transfected with the human CCK2R (A431-CCK2R(+)) and mock transfected with an empty vector alone (A431-CCK2R(−)) were kindly provided by Prof. Luigi Aloj.
The cells were cultured in Dulbecco’s modified Eagle’s medium (DMEM) supplemented with 10% of heat-inactivated fetal bovine serum and antibiotics (penicillin 100 U/mL and streptomycin 100 μg/mL) and cultivated at 37 °C in 5% CO2.
The binding affinity (the apparent 50% inhibitory concentration (IC50)) of [^natGa]Ga-CP04 and [^natLu]Lu-CP04 complexes for CCK2 receptor was determined in A431-CCK2R(+) cell line using [^90Y]Y-CP04 as a competitive radioligand according to the method used by Roosenburg et al.. [^90Y]Y-CP04 was obtained with a molar activity of 2.05 GBq/μmol calculated at the time of experiment and 98% radiochemical purity as determined by radio HPLC method. Human epidermoid carcinoma (A431-CCK2(+)) cells were subcultured overnight in 12-well plates in concentration of 0.5 mln per well. Before the experiments, the cells were washed with DMEM medium and then [^90Y]Y-labeled CP04 (2.05 GBq/μmol) was added to the cells in amount of 0.24 pmol per well (ca. 80,000 cpm) and incubated for 1 h at 37 °C with increasing concentrations (10^−6–10^−13 M) of the Ga and Lu complexes of CP04 peptide. […]

[2] = test system: CCK-2R; settings: literature SAR of CCK/gastrin derivatives; cited from earlier work
Source text: Table 3 SAR data from CCK/gastrin derivatives and their correspondence to our model | column: SAR data from CCK/gastrin derivatives

| Compound | IC50 [1] | binding to the receptor (SAR data in words) [2] |
| --- | --- | --- |
| CSCC[C@H](NC(=O)[C@H](Cc1c[nH]c2ccccc12)NC(=O)CNC(=O)[C@H](Cc1ccc(O)cc1)NC(=O)[C@H](C)NC(=O)[C@@H](CCC(=O)O)NC(=O)[C@@H](CCC(=O)O)NC(=O)[C@@H](CCC(=O)O)NC(=O)[C@@H](CCC(=O)O)NC(=O)[C@@H](CCC(=O)O)NC(=O)[C@@H](CCC(=O)O)NC(=O)CN1CCN(CC(=O)O)CCN(CC(=O)O)CCN(CC(=O)O)CC1)C(=O)N[C@@H](CC(=O)O)C(=O)N[C@@H](Cc1ccccc1)C(N)=O [[^natLu]Lu-CP04, metal not drawn] | 1.02 ± 0.28 nM | – |
| CSCC[C@H](NC(=O)[C@H](Cc1c[nH]c2ccccc12)NC(=O)CNC(=O)[C@H](Cc1ccc(O)cc1)NC(=O)[C@H](C)NC(=O)[C@@H](CCC(=O)O)NC(=O)[C@@H](CCC(=O)O)NC(=O)[C@@H](CCC(=O)O)NC(=O)[C@@H](CCC(=O)O)NC(=O)[C@@H](CCC(=O)O)NC(=O)[C@@H](CCC(=O)O)NC(=O)CN1CCN(CC(=O)O)CCN(CC(=O)O)CCN(CC(=O)O)CC1)C(=O)N[C@@H](CC(=O)O)C(=O)N[C@@H](Cc1ccccc1)C(N)=O [[^natGa]Ga-CP04, metal not drawn] | 1.15 ± 0.39 nM | – |
| H-Trp-Met-Asp-Phe-NH2 [CCK-4, C-terminal tetrapeptide of CCK] | – | 1. C-terminal sequence in cholecystokinins and gastrins is a condition necessary and sufficient for high affinity towards the receptor 2. Even a fragment as small as a tetrapeptide H-Trp-Met-Asp-Phe-NH2 (CCK-4) exhibits relatively good binding |
